Earlier results, collected in patent publication US20230312573A1, “NOVEL SALTS, CRYSTALS, AND CO-CRYSTALS” (INTRA-CELLULAR THERAPIES, INC., priority 2021, published 2023).

Experiments:
[1] = biological target: H1 histaminergic receptor (Homo sapiens, UniProt P35367)
5-HT2C receptor = biological target: T1, 5-HT2C receptor (Homo sapiens, UniProt P28335)
T1 sequence (P28335 33-458): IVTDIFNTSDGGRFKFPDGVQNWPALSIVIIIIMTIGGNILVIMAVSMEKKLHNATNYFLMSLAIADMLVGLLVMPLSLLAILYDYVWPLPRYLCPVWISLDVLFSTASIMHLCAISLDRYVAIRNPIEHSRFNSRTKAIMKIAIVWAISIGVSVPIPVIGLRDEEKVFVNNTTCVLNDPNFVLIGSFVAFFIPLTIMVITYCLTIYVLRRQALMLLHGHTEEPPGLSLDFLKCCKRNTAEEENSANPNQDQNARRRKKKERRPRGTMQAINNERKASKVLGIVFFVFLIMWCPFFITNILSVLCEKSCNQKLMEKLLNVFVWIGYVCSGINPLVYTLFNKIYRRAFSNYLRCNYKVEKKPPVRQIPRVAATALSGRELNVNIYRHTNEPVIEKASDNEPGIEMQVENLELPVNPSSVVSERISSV

Chain of H1 histaminergic receptor (P35367 whole entry): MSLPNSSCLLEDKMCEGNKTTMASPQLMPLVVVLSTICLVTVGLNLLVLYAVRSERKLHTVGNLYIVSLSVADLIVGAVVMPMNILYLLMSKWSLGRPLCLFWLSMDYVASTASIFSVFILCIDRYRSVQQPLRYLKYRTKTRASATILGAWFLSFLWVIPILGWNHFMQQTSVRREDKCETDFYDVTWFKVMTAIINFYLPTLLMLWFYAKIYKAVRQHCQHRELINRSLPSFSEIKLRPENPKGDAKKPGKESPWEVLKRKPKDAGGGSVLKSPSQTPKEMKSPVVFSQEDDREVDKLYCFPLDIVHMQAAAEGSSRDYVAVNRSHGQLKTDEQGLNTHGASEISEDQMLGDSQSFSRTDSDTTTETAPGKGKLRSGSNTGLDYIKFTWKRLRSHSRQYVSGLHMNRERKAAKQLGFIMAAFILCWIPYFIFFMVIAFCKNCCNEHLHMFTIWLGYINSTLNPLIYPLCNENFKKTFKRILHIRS

CN1CCN2c3c(cccc31)[C@@H]1CN(CCCC(=O)c3ccc(F)cc3)CC[C@@H]12 [Lumateperone, 1-(4-fluoro-phenyl)-4-((6bR,10aS)-3-methyl-2,3,6b,9,10,10a-hexahydro-1H,7H-pyrido[3′,4′:4,5]pyrrolo[1,2,3-de]quinoxalin-8-yl)-butan-1-one]
negligible binding: binding to H1 histaminergic receptors [1] | binding to 5-HT2C receptors (5-HT2C receptor) | binding to muscarinic receptors (muscarinic receptor)
